Source: patent US20240307409A1, “ARGININE METHYLTRANSFERASE INHIBITOR AND USE THEREOF” (Cytosinlab Therapeutics Co., Ltd., priority 2021, published 2024)

Tests used:
PRMT1 = PRMT1 (Homo sapiens, UniProt Q99873); assay: PRMT1 enzyme activity test; format: biochemical; details: 0.5 nM PRMT1, 3H-SAM, peptide
Procedure, shortened: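 Radiometric methylation assay: 0.5 nM PRMT1 preincubated 15 min at room temperature with compound (10-point 3-fold series, 1% DMSO) in pH 8.0 Tris buffer with Tween-20 and DTT. 0.25 uM ³H-SAM and 0.1 uM biotinylated peptide then reacted 120 min. Product captured on streptavidin FlashPlate and counted; IC50 from four-parameter fit of % inhibition.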

MV-4-11 cells = assay: MV-4-11 cell proliferation inhibition assay; format: cell-based; details: Homo sapiens, MV4-11, 144 h; six-day assay, CellTiter-Glo
Protocol: • A. Purpose: to determine the effects of compounds on Toledo cells through a six-day cell proliferation assay. • B. Reagents and materials: • 1. Cell culture medium: RPMI 1640+10% FBS • 2. 384-well cell culture plate (Corning, item #3764) • 3. 0.4% Taipan Blue Staining Solution (Thermo Fisher, item #T10282) • 4. cell counting plate (Thermo Fisher, item #C10228) • 5. 50 ml reagent reservoir (Corning, item #4870) • 6. 50 ml conical sterile polypropylene centrifuge tube (Thermo Fisher, item #339653) • 7. Automatic cell counter (Thermo Fisher, item #AMQAX1000) • 8. CellTiter-Glo Luminescent Cell Viability Detection Reagent (Promega, item #G7572) • 9. SpectraMax i3x Multi-Mode Enzyme Labeling Instrument (Megaman Molecular Instruments, item #5024062) • C. Experimental method • 1. Resuspending the cells with a pipette. • 2. 0.4% Taipan blue staining solution and Toledo cells were mixed in equal proportion, and the cells were counted using an automatic cell counter. • 3. Toledo cells were diluted to a final concentration of 2000 cells per well and transferred to a 50 ml reagent reservoir. • 4. Diluted Toledo cells were added to a 384-well cell culture plate, 40 ul per well. • 5. The cells were shortly centrifuged and settled. • 6. The cells were incubated in a 37° C., 5% CO2 cell culture incubator. • 7. The substrate in the CellTiter-Glo Luminescent Cell Viability Detection Reagent was mixed with the solution. • 8. After six days, the 384-well cell culture plate was taken from the incubator and 20 ul of configured CellTiter-Glo reagent was added to each well. • 9. 384-well cell culture platewasmixed in an orbital shaker for 30 minutes. • 10. Signal of luminescence was detected with a SpectraMax i3x multi-mode enzyme labeling instrument.
Similar to the Toledo cell proliferation inhibition assay method, the difference was that MV-4-11 cells were used and the cell culture medium was IMDM+10% FBS; in step 3 of the assay method 250 cells per well was used instead;

PRMT1, sequence (Q99873 whole entry): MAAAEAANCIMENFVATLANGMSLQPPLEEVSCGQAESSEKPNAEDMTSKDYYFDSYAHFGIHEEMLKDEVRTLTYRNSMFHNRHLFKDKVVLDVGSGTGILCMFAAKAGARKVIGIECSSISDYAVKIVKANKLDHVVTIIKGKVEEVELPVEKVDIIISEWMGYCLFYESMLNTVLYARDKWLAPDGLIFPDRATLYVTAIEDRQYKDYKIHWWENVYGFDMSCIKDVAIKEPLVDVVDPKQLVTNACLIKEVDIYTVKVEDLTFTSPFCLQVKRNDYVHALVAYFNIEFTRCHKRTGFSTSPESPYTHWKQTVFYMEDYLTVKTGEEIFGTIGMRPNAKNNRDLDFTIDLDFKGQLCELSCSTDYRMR

| SMILES | IC50 (PRMT1) | IC50 (MV-4-11 cells) |
| --- | --- | --- |
| CNCCN(C)Cc1ccc2c(c1C1CCN(c3cccc(C)c3)CC1)C(C)(C)C(=O)N2 [P402] | 50 to 500 nM | 1000 to 5000 nM |
| CNCCN(C)Cc1ccc2[nH]c(C(=O)c3ccccc3)nc2c1C1CCN(c2cccc(C)c2)CC1 [P407] | 50 to 500 nM | < 1000 nM |
| CNCCN(C)Cc1cnc2[nH]ncc2c1C1CCN(c2cccc(C)c2)CC1 [P409] | 50 to 500 nM | < 1000 nM |

The next lines start with the values.

| IC50 (PRMT1) | IC50 (MV-4-11 cells) | SMILES |
| --- | --- | --- |
| 50 to 500 nM | < 1000 nM | CNCCN(C)Cc1ccc2c(c1C1CCN(c3cccc(C)c3)CC1)C(=O)C(=O)N2Cc1ccc(OC)cc1 [P404] |
| < 50 nM | < 1000 nM | CNCCN(C)Cc1ccc2c(c1C1CCN(c3cccc(C)c3)CC1)C(=O)C(=O)N2 [P405] |
| < 50 nM | < 1000 nM | CNCCN(C)Cc1ccc2[nH]c(N3CCOCC3)nc2c1C1CCN(c2cccc(C)c2)CC1 [P406, N,N′-dimethyl-N′-[[2-morpholin-4-[1-(m-tolyl)-4-piperidinyl]-1H-benzo[d]imidazol-5-yl]methyl]ethane-1,2-diamine] |
